# Like-named read-outs stand apart in the source and are kept apart here.
# Legend:
# Assay in all cases: Antifungal susceptibility testing, broth microdilution MIC
# Type in all cases: cell-based
# Candida glabrata = settings: Nakaseomyces glabratus, fluconazole MIC50 (50% growth reduction), read-out: Minimum Inhibitory Concentration (MIC)
# Description: (§1) The minimum inhibitory concentrations (MICs) of fluconazole, amphotericin B, amphotericin B thiohexose or thiopentose stabilized gold nanoparticles, and of naked gold nanoparticles were determined using broth microdilution methods following the guidelines of the Clinical and Laboratory Standards Institute (Reference Method for Broth Dilution Antifungal Susceptibility Testing of Yeasts, Alexander B. D., 2017, M27-A4). Microtiter 96-well plates containing two-fold serial dilutions, at final concentrations ranging from […], of the test agents in RPMI-1640 medium (buffered with MOPS and adjusted to pH=7) were inoculated with the freshly-prepared fungal suspensions. Microtiter plates were incubated at 35° C. for 24-72 hrs according to the tested species.
# Candida krusei = settings: Pichia kudriavzevii, read-out: Minimum Inhibitory Concentration (MIC)
# Description: as §1
# Candida auris = settings: Candidozyma auris, fluconazole MIC50 (50% growth reduction), read-out: Minimum Inhibitory Concentration (MIC)
# Description: as §1
# Candida tropicalis = test system: Candida tropicalis
# Description: as §1
# Aspergillus fumigatus = settings: read-out: Minimum Inhibitory Concentration (MIC)
# Description: as §1
# Candida albicans = settings: read-out: Minimum Inhibitory Concentration (MIC)
# Description: as §1
# Cryptococcus gatti = settings: read-out: Minimum Inhibitory Concentration (MIC)
# Description: as §1
# Candida parapsilosis = settings: Lodderomyces parapsilosis, read-out: Minimum Inhibitory Concentration (MIC)
# Description: as §1
# Cryptococcus neoformans = settings: read-out: Minimum Inhibitory Concentration (MIC)
# Description: as §1
smiles,measurement,setting,value
OC(Cn1cncn1)(Cn1cncn1)c1ccc(F)cc1F [Fluconazole],MIC,"Candida glabrata; ATCC2001, Candida glabrata ATCC 2001",4 mg/L
same,MIC,"Candida glabrata; ATCC66032, Candida glabrata ATCC 66032",8 mg/L
same,MIC,Candida glabrata; Candida glabrata ATCC MYA-2950,8 mg/L
same,MIC,Candida glabrata; Candida glabrata CAB 524041,4 mg/L
same,MIC,Candida krusei; ATCC14243,16 mg/L
same,MIC,Candida krusei; ATCC34135,16 mg/L
same,MIC,Candida krusei,16 mg/L
same,MIC,Candida auris; Candida auris 381,1 mg/L
same,MIC,Candida auris; Candida auris 385,> 128 mg/L
same,MIC,Candida auris; Candida auris 386,> 128 mg/L
same,MIC,Candida auris; Candida auris 389,> 128 mg/L
same,MIC,Candida auris; Candida auris 390,> 128 mg/L
same,MIC,"Candida tropicalis; ATCC1369, read-out: Minimum Inhibitory Concentration (MIC)",0.5 mg/L
same,MIC,"Candida tropicalis; ATCC13803, read-out: Minimum Inhibitory Concentration (MIC)",0.25 mg/L
same,MIC,"Aspergillus fumigatus; Aspergillus fumigatus NR-35303, fluconazole MIC50 (50% growth reduction)",128 mg/L
same,MIC,"Aspergillus fumigatus; Aspergillus fumigatus NR-35304, fluconazole MIC50 (50% growth reduction)",> 128 mg/L
same,MIC,"Aspergillus fumigatus; Aspergillus fumigatus NR-41312, fluconazole MIC50 (50% growth reduction)",128 mg/L
same,MIC,"Candida albicans; ATCC10231, Candida albicans ATCC 10231, fluconazole MIC50 (50% growth reduction)",2 mg/L
same,MIC,"Candida albicans; ATCC26790, Candida albicans ATCC 26790, fluconazole MIC50 (50% growth reduction)",1 mg/L
same,MIC,"Candida albicans; ATCC64124, Candida albicans ATCC 64124, fluconazole MIC50 (50% growth reduction)",128 mg/L
same,MIC,"Candida albicans; Candida albicans NR 29446, fluconazole MIC50 (50% growth reduction)",> 128 mg/L
same,MIC,"Candida albicans; Candida albicans NR 29448, fluconazole MIC50 (50% growth reduction)",> 128 mg/L
same,MIC,"Candida albicans; SC5314, Candida albicans SC5314, fluconazole MIC50 (50% growth reduction)",0.5 mg/L
same,MIC,"Cryptococcus gatti; Cryptococcus gatti NR-43208, fluconazole MIC50 (50% growth reduction)",8 mg/L
same,MIC,"Cryptococcus gatti; Cryptococcus gatti NR-43209, fluconazole MIC50 (50% growth reduction)",16 mg/L
same,MIC,"Cryptococcus gatti; Cryptococcus gatti NR-43210, fluconazole MIC50 (50% growth reduction)",16 mg/L
same,MIC,"Cryptococcus gatti; Cryptococcus gatti NR-43213, fluconazole MIC50 (50% growth reduction)",8 mg/L
same,MIC,Candida parapsilosis; ATCC22019,2 mg/L
same,MIC,Candida parapsilosis,0.5 mg/L
same,MIC,"Cryptococcus neoformans; Cryptococcus neoformans NR-41291, fluconazole MIC50 (50% growth reduction)",16 mg/L
same,MIC,"Cryptococcus neoformans; Cryptococcus neoformans NR-41295, fluconazole MIC50 (50% growth reduction)",32 mg/L
same,MIC,"Cryptococcus neoformans; Cryptococcus neoformans NR-41298, fluconazole MIC50 (50% growth reduction)",4 mg/L
same,MIC,"Cryptococcus neoformans; Cryptococcus neoformans NR-48767, fluconazole MIC50 (50% growth reduction)",4 mg/L
